Reference: patent publication US12060349B2, “Glucosylceramide synthase inhibitors” (Genzyme Corporation, priority 2012, dated 2024)
Read-outs that look alike come from different tables or passages of the source.

Columns and labels:
[1] = system: GM3 expression on the cell surface, C32 human melanoma cells; experiment: cell based phenotypic assay, cell surface GM3 by antibody mediated immunofluorescence, C32 (GM3 C32 IC50); conditions: Homo sapiens, 50% inhibition of GM3 expression on the cell surface
How it was run: (§1)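 B16 mouse and C32 human melanoma cells; cell-surface GM3 measured by antibody-mediated immunofluorescence, giving IC50.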

[2] = target: T1, glucosylceramide synthase (Homo sapiens, UniProt Q16739); experiment: microsomal assay measuring conversion of ceramide to glucosylceramide by HPLC (GCS IC50); assay type: biochemical; conditions: concentration causing 50% inhibition of glucosylceramide synthase activity
T1 construct: Microsomes were isolated from A375 human melanoma cells; endogenous in cells; host or cells: A375 human melanoma cells (microsomal fraction, 100,000 g pellet)
T1 sequence (Q16739 1-394): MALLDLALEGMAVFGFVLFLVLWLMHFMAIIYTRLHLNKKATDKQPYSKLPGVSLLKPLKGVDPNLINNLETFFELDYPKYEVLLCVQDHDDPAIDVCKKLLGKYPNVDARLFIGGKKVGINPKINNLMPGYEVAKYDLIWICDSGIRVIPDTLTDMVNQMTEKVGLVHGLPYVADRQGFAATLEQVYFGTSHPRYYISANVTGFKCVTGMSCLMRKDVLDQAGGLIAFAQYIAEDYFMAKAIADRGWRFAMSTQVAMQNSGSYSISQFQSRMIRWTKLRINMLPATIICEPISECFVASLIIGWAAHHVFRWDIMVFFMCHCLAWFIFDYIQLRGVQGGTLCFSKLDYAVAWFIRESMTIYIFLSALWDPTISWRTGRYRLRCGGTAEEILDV
How it was run: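 IC50 is the compound concentration halving glucosylceramide synthase activity. Activity was measured in microsomes, with HPLC quantifying glucosylceramide formed from ceramide.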

[3] = system: B16 mouse melanoma cells; experiment: cell viability in the B16 cell-based assay (Viability, B16 IC50); conditions: Mus musculus
How it was run: (§2)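 Viability readouts were run alongside the GM3 cell-surface assay in the same B16 and C32 cultures. A figure above 10 indicates no cell death.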

[4] = system: GM3 expression on the cell surface, B16 mouse melanoma cells; experiment: cell based phenotypic assay, cell surface GM3 by antibody mediated immunofluorescence, B16 (GM3 B16 IC50); conditions: Mus musculus, 50% inhibition of GM3 expression on the cell surface
How it was run: as §1

[5] = system: C32 human melanoma cells; experiment: cell viability in the C32 cell-based assay (Viability, C32 IC50); conditions: Homo sapiens, concentration causing 50% cell death, values greater than 10 represent a lack of cell death
How it was run: as §2

[6] = C32 human melanoma cells, read-out: GM3 C32 IC50
[7] = B16, B16 cells, concentration causing 50% cell death, values greater than 10 represent a lack of cell death, read-out: Viability, B16 IC50
[8] = B16 mouse melanoma cells, read-out: GM3 B16 IC50
[9] = C32, C32 cells, read-out: Viability, C32 IC50
[10] = read-out: GM3 C32 IC50, C32 human melanoma cells
[11] = B16, read-out: Viability, B16 IC50
[12] = read-out: GM3 B16 IC50, B16 mouse melanoma cells
[13] = C32, read-out: Viability, C32 IC50, C32 cells

IC50 [1, 6]	IC50 [4, 8]	SMILES	IC50 [2]	IC50 [3, 7]	IC50 [5, 9]	IC50 [1, 10]	IC50 [3, 11]	IC50 [4, 12]	IC50 [5, 13]
–	–	COCCOc1ccc(-c2ccc(C(C)(C)NC(=O)OC3CN4CCC3CC4)cc2)cn1 (centres unmarked) [Example 307, Quinuclidin-3-yl 2-(4-(6-(2-methoxyethoxy)pyridin-3-yl)phenyl)propan-2-ylcarbamate]	735 nM	–	–	97.2 nM	≥ 10000 nM	4340 nM	≥ 10000 nM
–	–	COCCOc1ccc(-c2ccc(C(C)(C)NC(=O)OC3CN4CCC3CC4)cc2)nc1 (centres unmarked) [Example 308, Quinuclidin-3-yl 2-(4-(5-(2-methoxyethoxy)pyridin-2-yl)phenyl)propan-2-ylcarbamate]	254 nM	–	–	35.8 nM	7770 nM	314 nM	1000 nM
–	–	COCCOc1ccc(-c2cccc(C(C)(C)NC(=O)OC3CN4CCC3CC4)c2)nc1 (centres unmarked) [Example 309, Quinuclidin-3-yl 2-(3-(5-(2-methoxyethoxy)pyridin-2-yl)phenyl)propan-2-ylcarbamate]	106 nM	–	–	14 nM	≥ 10000 nM	188 nM	3160 nM
12.1 nM	145 nM	COCCOc1ccc(-c2ccc(C(C)(C)NC(=O)OC3CCN4CCC3CC4)cc2)nc1 (centres unmarked) [Example 310, 1-Azabicyclo[3.2.2]nonan-4-yl 2-(4-(5-(2-methoxyethoxy)pyridin-2-yl)phenyl)propan-2-ylcarbamate]	123 nM	≥ 10000 nM	3160 nM	–	–	–	–
8.5 nM	103 nM	COCCOc1ccc(-c2cccc(C(C)(C)NC(=O)OC3CCN4CCC3CC4)c2)nc1 (centres unmarked) [Example 311, 1-Azabicyclo[3.2.2]nonan-4-yl 2-(3-(5-(2-methoxyethoxy)pyridin-2-yl)phenyl)propan-2-ylcarbamate]	76 nM	≥ 10000 nM	3160 nM	–	–	–	–
–	–	COCCCOc1ccc(-c2cccc(C(C)(C)NC(=O)OC3CN4CCC3CC4)c2)nn1 (centres unmarked) [Example 312, Quinuclidin-3-yl (2-(3-(6-(3-methoxypropoxy)pyridazin-3-yl)phenyl)propan-2-yl)carbamate]	1660 nM	–	–	103 nM	≥ 10000 nM	1340 nM	1000 nM
10.7 nM	470 nM	COCCCOc1ccc(-c2cccc(C(C)(C)NC(=O)OC3CCN4CCC3CC4)c2)nn1 (centres unmarked) [Example 313, 1-Azabicyclo[3.2.2]nonan-4-yl (2-(3-(6-(3-methoxypropoxy)pyridazin-3-yl)phenyl)propan-2-yl)carbamate]	88.9 nM	≥ 10000 nM	≥ 10000 nM	–	–	–	–
118 nM	4910 nM	COCCCOc1ccc(-c2cccc(C(C)(C)NC(=O)N3CCN4CCC3CC4)c2)nn1 [Example 314, N-(2-(3-(6-(3-Methoxypropoxy)pyridazin-3-yl)phenyl)propan-2-yl)-1,4-diazabicyclo[3.2.2]nonane-4-carboxamide]	2630 nM	≥ 10000 nM	≥ 10000 nM	–	–	–	–
–	–	COCCCOc1cnc(-c2cccc(C(C)(C)NC(=O)OC3CN4CCC3CC4)c2)cn1 (centres unmarked) [Example 315, Quinuclidin-3-yl (2-(3-(5-(3-methoxypropoxy)pyrazin-2-yl)phenyl)propan-2-yl)carbamate]	197 nM	–	–	25.9 nM	≥ 10000 nM	435 nM	1000 nM
4.39 nM	152 nM	COCCCOc1cnc(-c2cccc(C(C)(C)NC(=O)OC3CCN4CCC3CC4)c2)cn1 (centres unmarked) [Example 316, 1-Azabicyclo[3.2.2]nonan-4-yl (2-(3-(5-(3-methoxypropoxy)pyrazin-2-yl)phenyl)propan-2-yl)carbamate]	28 nM	≥ 10000 nM	≥ 10000 nM	–	–	–	–
29.1 nM	656 nM	COCCCOc1cnc(-c2cccc(C(C)(C)NC(=O)N3CCN4CCC3CC4)c2)cn1 [Example 317, N-(2-(3-(5-(3-Methoxypropoxy)pyrazin-2-yl)phenyl)propan-2-yl)-1,4-diazabicyclo[3.2.2]nonane-4-carboxamide]	295 nM	≥ 10000 nM	1000 nM	–	–	–	–
8.04 nM	121 nM	CCOc1ccc(-c2cccc(C(C)(C)NC(=O)OC3CCN4CCC3CC4)c2)nn1 (centres unmarked) [Example 319, 1-Azabicyclo[3.2.2]nonan-4-yl (2-(3-(6-ethoxypyridazin-3-yl)phenyl)propan-2-yl)carbamate]	75 nM	≥ 10000 nM	≥ 10000 nM	–	–	–	–
–	–	COCCCOc1cnc(-c2ccc(C(C)(C)NC(=O)OC3CN4CCC3CC4)cc2)cn1 (centres unmarked) [Example 320, Quinuclidin-3-yl (2-(4-(5-(3-methoxypropoxy)pyrazin-2-yl)phenyl)propan-2-yl)carbamate]	131 nM	–	–	11.2 nM	≥ 10000 nM	201 nM	1000 nM
6.39 nM	108 nM	COCCCOc1cnc(-c2ccc(C(C)(C)NC(=O)OC3CCN4CCC3CC4)cc2)cn1 (centres unmarked) [Example 321, 1-Azabicyclo[3.2.2]nonan-4-yl (2-(4-(5-(3-methoxypropoxy)pyrazin-2-yl)phenyl)propan-2-yl)carbamate]	46.1 nM	≥ 10000 nM	1000 nM	–	–	–	–
99.9 nM	1440 nM	COCCCOc1cnc(-c2ccc(C(C)(C)NC(=O)N3CCN4CCC3CC4)cc2)cn1 [Example 322, N-(2-(4-(5-(3-methoxypropoxy)pyrazin-2-yl)phenyl)propan-2-yl)-1,4-diazabicyclo[3.2.2]nonane-4-carboxamide]	1070 nM	≥ 10000 nM	1000 nM	–	–	–	–
–	–	COCCCOc1cnc(-c2cccc(C(C)(C)NC(=O)OC3CN4CCC3CC4)c2)nc1 (centres unmarked) [Example 323, Quinuclidin-3-yl (2-(3-(5-(3-methoxypropoxy)pyrimidin-2-yl)phenyl)propan-2-yl)carbamate]	1160 nM	–	–	48.8 nM	≥ 10000 nM	508 nM	1000 nM
8.49 nM	157 nM	COCCCOc1cnc(-c2cccc(C(C)(C)NC(=O)OC3CCN4CCC3CC4)c2)nc1 (centres unmarked) [Example 324, 1-Azabicyclo[3.2.2]nonan-4-yl (2-(3-(5-(3-methoxypropoxy)pyrimidin-2-yl)phenyl)propan-2-yl)carbamate]	96.9 nM	≥ 10000 nM	1000 nM	–	–	–	–

SMILES	IC50 [1, 6]	IC50 [4, 8]	IC50 [2]	IC50 [3, 7]	IC50 [5, 9]	IC50 [1, 10]	IC50 [3, 11]	IC50 [4, 12]	IC50 [5, 13]
CCC1(NC(=O)NC(C)(C)c2ccc(C(=O)N3CCN(c4ccccc4)CC3)cc2)CN2CCC1CC2 (centres unmarked) [Example 306, 1-(3-Ethylquinuclidin-3-yl)-3-(2-(4-(4-phenylpiperazine-1-carbonyl)phenyl)propan-2-yl)urea]	32 nM	257 nM	95.1 nM	≥ 10000 nM	3160 nM	–	–	–	–
CCC1(NC(=O)NC(C)(C)C#Cc2ccc(CCOC)cc2)CN2CCC1CC2 (centres unmarked) [Example 325, 1-(3-Ethylquinuclidin-3-yl)-3-(4-(4-(2-methoxyethyl)phenyl)-2-methylbut-3-yn-2-yl)urea]	7.94 nM	399 nM	92 nM	≥ 10000 nM	≥ 10000 nM	–	–	–	–
CCCC1(NC(=O)NC(C)(C)C#Cc2ccc(CCOC)cc2)CN2CCC1CC2 (centres unmarked) [Example 326, 1-(4-(4-(2-Methoxyethyl)phenyl)-2-methylbut-3-yn-2-yl)-3-(3-propylquinuclidin-3-yl)urea]	4.29 nM	123 nM	26.6 nM	3160 nM	3160 nM	–	–	–	–
CCC1(NC(=O)NC(C)(C)C#Cc2ccc(COC)cc2)CN2CCC1CC2 (centres unmarked) [Example 327, 1-(3-Ethylquinuclidin-3-yl)-3-(4-(4-(methoxymethyl)phenyl)-2-methylbut-3-yn-2-yl)urea]	14.7 nM	343 nM	96.2 nM	≥ 10000 nM	≥ 10000 nM	–	–	–	–
CCCC1(NC(=O)NC(C)(C)C#Cc2ccc(COC)cc2)CN2CCC1CC2 (centres unmarked) [Example 328, 1-(4-(4-(Methoxymethyl)phenyl)-2-methylbut-3-yn-2-yl)-3-(3-propylquinuclidin-3-yl)urea]	3.32 nM	115 nM	25.1 nM	3160 nM	3160 nM	–	–	–	–
